Measurements reported in patent US9994862B2, “Rice resistant to HPPD and ACCase inhibiting herbicides” (priority 2011, dated 2018).
“Also recorded” adds a separate entry of the source.

Columns and labels:
[1] = test system: common grass weeds, such as barnyard grass; assay: Grass weed control by ACCase herbicides in rice; assay type: in vivo; settings: for control of common grass weeds in rice: in vivo
Excerpt: (§1) FIG. 5 illustrates grass weed control by the ACCase inhibitor quizalofop; control is shown by the prevalent grass weed (dead plants) being killed by quizalofop (77 gm ai/ha) while the resistant line ML0831265-01493 (live plants) were not injured.
Rice is tolerant to certain ACCase inhibitor herbicides, for example cyhalofop is registered for use in rice. However other ACCase herbicides kill or severely injure rice to varying degrees. […] The applied rates of both types of herbicides giving the weed control are well within the tolerance level of the respective ACCase and HPPD tolerant lines including the combined lines carrying tolerance to both HPPD and ACCase herbicides.

line P1003 = assay: ACCase herbicide field trial; assay type: in vivo, rice; settings: four weeks after application
Procedure: (§2) FIG. 3A-3B is a photograph of line ML0831266-03093 that in addition to resistance to HPPD herbicides also has enhanced resistance to ACCase herbicides. […] Picture taken four weeks after herbicide application.
(§3) During the process of showing equivalent resistance of the ACCase tolerance in the new line PL1214418M2-73009, the HPPD tolerant line ML0831266-03093 was also evaluated for response to ACCase tolerance by application of the ACCase herbicides fluazifop at 0.5×, 1×, 2×, and 4× multiples of the label application rate (210 gmai/ha) and quizalofop at 0.5×, 1×, 2×, and 4× multiples of the label application rate (77 gmai/ha). In the field trials the resistant HPPD line ML0831266-03093 was planted in a row adjacent to the parent line P1003. […] By combining the HPPD tolerance with the ACCase tolerance the newly developed line PL1214418M2-73009, or any other new line and other derived lines because resistance is heritable and can be bred into lines e.g. progeny may carry a higher tolerance to ACCase inhibiting herbicides than lines developed from only the ACCase inhibitor resistant line ML0831265-01493.

[2] = test system: HPPD tolerant line ML0831266-03093; assay: ACCase herbicide field trial; assay type: in vivo, rice; settings: for resistance to ACCase inhibiting herbicides compared with line P1003: 0.5x to 4x of label rate (fluazifop 210 gmai/ha, quizalofop 77 gmai/ha)
Procedure: as §2, §3

line PL1214418M2-80048 = assay: Herbicide tolerance of the combined HPPD and ACCase line; design: species or system rice; settings: in vivo
Excerpt: An early maturing group of plants was harvested as early as possible and the seeds planted in the greenhouse to help quickly advance to the F4 generation. Selections on the F3 plants were made by molecular markers flanking the HPPD tolerance mutation and native tolerance the ACCase functional mutation. Homozygous plants for all the selected genomic regions were advanced to the F5 generation. The F5 seed was confirmed to carry tolerance to ACCase herbicides and the HPPD herbicide mesotrione. Among the F5 lines PL1214418M2-80048 was selected due to a high seed yield and being homozygous for the ACCase tolerance mutation at position G2096S, the HPPD tolerance mutation, and the HPPD tolerance native gene. Seed from the line PL1214418M2-80048 was deposited at the ATCC and given a deposit number PTA-121362 (see Table 8).
Individuals with tolerance to both mesotrione and ACCase herbicides were selfed to produce F3 families and further selected for other important agronomic characters. The F3 lines were selfed and purified to derive a new line or variety with dual resistance to mesotrione and ACCase herbicides. Such lines are highly valuable as the use of both herbicides provides more complete and broad-spectrum weed control. […]

line PL1214418M2-73009 = assay: ACCase herbicide field trial; assay type: in vivo, rice; settings: for tolerance to ACCase herbicide compared with donor line ML0831265-01493: 0.5x to 4x of label rate (fluazifop 210 gmai/ha, quizalofop 77 gmai/ha)
Procedure: FIG. 2 is a graphical representation of a trait tolerance trial; the trial rice were planted, quizalofop was applied at the indicated rates about 5 weeks later (initiating tillering); the rice was evaluated for the percent of injury or damage as compared to unsprayed rice four weeks after herbicide application; line ML0831265-01493 is the ACCase resistant line and R0146 and P1003 are control lines; the line PL1214418M2-73009 was selected out of a cross between the HPPD tolerant line ML0831266-03093 (parent is P1003) and the ACCase tolerant line ML0831265-01493 (parent is R0146).
(§4) Another trial was conducted to confirm recovery of the ACCase inhibitor resistance from the G2096S mutation as in the line ML0831265-01493. In this trial the new line PL1214418-73009 with combined HPPD and ACCase tolerance was planted in a row along with other various lines including the original donor line ML0831265-01493 (planted in a plot), ML0831266-03093, P1003, R0146 parent line for ACCase tolerance. The lines were all tested with the ACCase herbicides fluazifop at 0.5×, 1×, 2×, and 4× multiples of the label application rate (210 gmai/ha) and quizalofop at 0.5×, 1×, 2×, and 4× multiples of the label application rate (77 gmai/ha).

[3] = test system: ACCase resistant line ML0831265-01493; assay: ACCase herbicide field trial; assay type: in vivo, rice; settings: quizalofop 77 gm ai/ha
Procedure: as §1, §4
After screening a large mutant population, the line ML0831265-02283 also survived application of the ACCase herbicide quizalofop. The line was increased to obtain sufficient seed for larger trials to evaluate its tolerance to ACCase herbicides. […] Twenty one days after the herbicide was applied the plots were evaluated for percent injury caused to the rice based on control plots that had no herbicide application (FIG. 8). […]

line ML0831265-02283 = assay: ACCase herbicide field trial; assay type: in vivo, rice
Excerpt: After screening a large mutant population, the line ML0831265-02283 also survived application of the ACCase herbicide quizalofop. The line was increased to obtain sufficient seed for larger trials to evaluate its tolerance to ACCase herbicides. The tolerance to ACCase herbicides in line ML0831265-02283 was validated by planting in the field plots (5 feet by 10 feet) of the line, the non-mutant parent line R0146, a second non-mutant line P1003, and the ACCase tolerant line ML0831265-01493. The ACCase herbicide quizalofop was applied at the four leaf stage at 0.5×, 1×, 2×, and 4× multiples of the labeled rate (77 gmai/ha). Twenty one days after the herbicide was applied the plots were evaluated for percent injury caused to the rice based on control plots that had no herbicide application (FIG. 8). The data confirms the tolerance of line ML0831265-02283 and it may even carry more tolerance than line ML0831265-01493 as shown by less injury at the 2× and 4× rates of quizalofop.

## CC(Oc1ccc(Oc2ccc(C(F)(F)F)cn2)cc1)C(=O)O (stereo not drawn) [fluazifop]
[1]
  control of common grass weeds in rice: good control
Line P1003; fluazifop alone 210 gmai/ha at initiation of tillering
  killing of rice plants: no killing of the rice plants was observed
[2]
  resistance to ACCase inhibiting herbicides compared with line P1003: more resistance
Line PL1214418M2-80048
  tolerance to the herbicide: tolerance
Line PL1214418M2-73009
  tolerance to ACCase herbicide compared with donor line ML0831265-01493: equivalent tolerance
Line PL1214418M2-73009; in vivo
  tolerance to fluazifop: tolerance

## CC(Oc1ccc(Oc2cnc3cc(Cl)ccc3n2)cc1)C(=O)O (stereo not drawn) [quizalofop]
[1]
  control of common grass weeds in rice: good control
[1]; quizalofop 77 gm ai/ha, prevalent grass weed
  grass weed control: killed
[3]
  injury of the rice: not injured
Line ML0831265-02283; 2x and 4x of the labeled rate 77 gmai/ha, four leaf stage, 21 days after application
  injury compared with line ML0831265-01493: less injury
Line ML0831265-02283; in vivo
  survival in the screening of the mutant population: survived
Line P1003; 77 gm ai/ha
  survival after quizalofop: does not survive
[2]
  resistance to ACCase inhibiting herbicides compared with line P1003: more resistance
[2]; 77 gm ai/ha, four weeks after application
  survival after quizalofop: surviving
Line PL1214418M2-73009
  tolerance to ACCase herbicide compared with donor line ML0831265-01493: equivalent or better; also recorded: equivalent tolerance
